Assay results from ChEMBL document CHEMBL1781959, “Synthesis and in vitro antitumor activity of substituted quinazoline and quinoxaline derivatives: search for anticancer agent” (Eur J Med Chem, 2011).

How the values were obtained:
Type in all cases: functional
SF-295 = assay: Anticancer activity against human SF295 cells assessed as cell growth promotion at 10^-5 M after 48 hrs by SRB assay relative to control
HCC 2998 = assay: Anticancer activity against human HCC2998 cells assessed as cell growth promotion at 10^-5 M after 48 hrs by SRB assay relative to control
NCI-H460 = assay: Anticancer activity against human NCI-H460 cells assessed as cell growth promotion at 10^-5 M after 48 hrs by SRB assay relative to control
MDA-MB-435 = assay: Anticancer activity against human MDA-MB-435 cells assessed as cell growth promotion at 10^-5 M after 48 hrs by SRB assay relative to control
NCI-H226 = assay: Anticancer activity against human NCI-H226 cells assessed as cell growth promotion at 10^-5 M after 48 hrs by SRB assay relative to control
MDA-MB-231 = assay: Anticancer activity against human MDA-MB-231 cells assessed as cell growth promotion at 10^-5 M after 48 hrs by SRB assay relative to control
EKVX = assay: Anticancer activity against human EKVX cells assessed as cell growth promotion at 10^-5 M after 48 hrs by SRB assay relative to control
K562 = assay: Anticancer activity against human K562 cells assessed as cell growth promotion at 10^-5 M after 48 hrs by SRB assay relative to control
SN12C = assay: Anticancer activity against human SN12C cells assessed as cell growth promotion at 10^-5 M after 48 hrs by SRB assay relative to control
A498 = assay: Anticancer activity against human A498 cells assessed as cell growth promotion at 10^-5 M after 48 hrs by SRB assay relative to control
RXF 393 = assay: Anticancer activity against human RXF393 cells assessed as cell growth promotion at 10^-5 M after 48 hrs by SRB assay relative to control
OVCAR-5 = assay: Anticancer activity against human OVCAR5 cells assessed as cell growth promotion at 10^-5 M after 48 hrs by SRB assay relative to control
NCI/ADR-RES = assay: Anticancer activity against human NCI/ADR-RES cells assessed as cell growth promotion at 10^-5 M after 48 hrs by SRB assay relative to control
UACC-257 = assay: Anticancer activity against human UACC257 cells assessed as cell growth promotion at 10^-5 M after 48 hrs by SRB assay relative to control
TK-10 = assay: Anticancer activity against human TK10 cells assessed as cell growth promotion at 10^-5 M after 48 hrs by SRB assay relative to control
HCT-15 = assay: Anticancer activity against human HCT15 cells assessed as cell growth promotion at 10^-5 M after 48 hrs by SRB assay relative to control
SR = assay: Anticancer activity against human SR cells assessed as cell growth promotion at 10^-5 M after 48 hrs by SRB assay relative to control
SK-MEL-28 = assay: Anticancer activity against human SK-MEL-28 cells assessed as cell growth promotion at 10^-5 M after 48 hrs by SRB assay relative to control
SF-539 = assay: Anticancer activity against human SF539 cells assessed as cell growth promotion at 10^-5 M after 48 hrs by SRB assay relative to control
A549 = assay: Anticancer activity against human A549 cells assessed as cell growth promotion at 10^-5 M after 48 hrs by SRB assay relative to control
KM12 = assay: Anticancer activity against human KM12 cells assessed as cell growth promotion at 10^-5 M after 48 hrs by SRB assay relative to control
786-0 = assay: Anticancer activity against human 786-0 cells assessed as cell growth promotion at 10^-5 M after 48 hrs by SRB assay relative to control
T47D = assay: Anticancer activity against human T47D cells assessed as cell growth promotion at 10^-5 M after 48 hrs by SRB assay relative to control
SF-268 = assay: Anticancer activity against human SF268 cells assessed as cell growth promotion at 10^-5 M after 48 hrs by SRB assay relative to control
DU-145 = assay: Anticancer activity against human DU145 cells assessed as cell growth promotion at 10^-5 M after 48 hrs by SRB assay relative to control
HCT-116 = assay: Anticancer activity against human HCT116 cells assessed as cell growth promotion at 10^-5 M after 48 hrs by SRB assay relative to control
SK-MEL-5 = assay: Anticancer activity against human SK-MEL-5 cells assessed as cell growth promotion at 10^-5 M after 48 hrs by SRB assay relative to control
OVCAR-3 = assay: Anticancer activity against human OVCAR3 cells assessed as cell growth promotion at 10^-5 M after 48 hrs by SRB assay relative to control
SK-OV-3 = assay: Anticancer activity against human SKOV3 cells assessed as cell growth promotion at 10^-5 M after 48 hrs by SRB assay relative to control
[1] = Anticancer activity against human Hs 578T cells assessed as cell growth promotion at 10^-5 M after 48 hrs by SRB assay relative to control
CAKI-1 = assay: Anticancer activity against human Caki1 cells assessed as cell growth promotion at 10^-5 M after 48 hrs by SRB assay relative to control
CCRF-CEM = assay: Anticancer activity against human CCRF-CEM cells assessed as cell growth promotion at 10^-5 M after 48 hrs by SRB assay relative to control
MDA-MB-468 = assay: Anticancer activity against human MDA-MB-468 cells assessed as cell growth promotion at 10^-5 M after 48 hrs by SRB assay relative to control
OVCAR-8 = assay: Anticancer activity against human OVCAR8 cells assessed as cell growth promotion at 10^-5 M after 48 hrs by SRB assay relative to control
MCF7 = assay: Anticancer activity against human MCF7 cells assessed as cell growth promotion at 10^-5 M after 48 hrs by SRB assay relative to control
PC-3 = assay: Anticancer activity against human PC3 cells assessed as cell growth promotion at 10^-5 M after 48 hrs by SRB assay relative to control
Malme-3M = assay: Anticancer activity against human MALME-3M cells assessed as cell growth promotion at 10^-5 M after 48 hrs by SRB assay relative to control
UO-31 = assay: Anticancer activity against human UO31 cells assessed as cell growth promotion at 10^-5 M after 48 hrs by SRB assay relative to control
MOLT-4 = assay: Anticancer activity against human MOLT4 cells assessed as cell growth promotion at 10^-5 M after 48 hrs by SRB assay relative to control
SNB-19 = assay: Anticancer activity against human SNB19 cells assessed as cell growth promotion at 10^-5 M after 48 hrs by SRB assay relative to control

## O=c1c2ccccc2nc(-c2ccco2)n1/N=C/c1ccccc1Cl
SF-295
  Activity: 52.12%
HCC 2998
  Activity: 34.89%
NCI-H460
  Activity: 28.38%
MDA-MB-435
  Activity: 90.21%
NCI-H226
  Activity: 53.52%
MDA-MB-231
  Activity: 52.12%
EKVX
  Activity: 64.12%
K562
  Activity: 101.3%
SN12C
  Activity: 36.81%
A498
  Activity: 36.82%
RXF 393
  Activity: 82.73%
OVCAR-5
  Activity: 37.89%
NCI/ADR-RES
  Activity: 12.24%
UACC-257
  Activity: 82.72%
TK-10
  Activity: 73.98%
HCT-15
  Activity: 62.36%
SR
  Activity: 94.12%
SK-MEL-28
  Activity: 38.98%
SF-539
  Activity: 24.89%
A549
  Activity: 38.12%
KM12
  Activity: 26.67%
786-0
  Activity: 26.39%
T47D
  Activity: 62.59%
SF-268
  Activity: 72.86%
DU-145
  Activity: 56.23%
HCT-116
  Activity: 24.88%
SK-MEL-5
  Activity: 48.82%
OVCAR-3
  Activity: 27.98%
SK-OV-3
  Activity: 25.85%
[1]
  Activity: 83.85%
CAKI-1
  Activity: 62.86%
CCRF-CEM
  Activity: 83.12%
MDA-MB-468
  Activity: 78.92%
OVCAR-8
  Activity: 26.87%
MCF7
  Activity: 63.86%
PC-3
  Activity: 78.23%
Malme-3M
  Activity: 78.64%
UO-31
  Activity: 62.12%
MOLT-4
  Activity: 99.12%
SNB-19
  Activity: 62.14%

## O=C(Nc1ccccc1C(=O)Nc1ccc(/C=C/c2ccc(O)cc2)cc1)c1ccccc1
SF-295
  Activity: 97.53%
HCC 2998
  Activity: 94.19%
NCI-H460
  Activity: 92.1%
MDA-MB-435
  Activity: 86.41%
NCI-H226
  Activity: 79.29%
MDA-MB-231
  Activity: 76.35%
EKVX
  Activity: 85.24%
K562
  Activity: 40.21%
SN12C
  Activity: 80.93%
A498
  Activity: 85.08%
RXF 393
  Activity: 97.37%
OVCAR-5
  Activity: 96.06%
NCI/ADR-RES
  Activity: 71.73%
UACC-257
  Activity: 94.49%
TK-10
  Activity: 100%
HCT-15
  Activity: 57.75%
SR
  Activity: 94.97%
SK-MEL-28
  Activity: 103%
SF-539
  Activity: 81.74%
A549
  Activity: 75.71%
KM12
  Activity: 67.28%
786-0
  Activity: 81.43%
T47D
  Activity: 66.17%
SF-268
  Activity: 69.03%
DU-145
  Activity: 100%
HCT-116
  Activity: 70.71%
SK-MEL-5
  Activity: 76.71%
OVCAR-3
  Activity: 89.47%
SK-OV-3
  Activity: 92.69%
[1]
  Activity: 104%
CAKI-1
  Activity: 70.25%
CCRF-CEM
  Activity: 40.37%
MDA-MB-468
  Activity: 77.87%
OVCAR-8
  Activity: 86.46%
MCF7
  Activity: 77.81%
PC-3
  Activity: 61.81%
Malme-3M
  Activity: 97.53%
UO-31
  Activity: 39.29%
MOLT-4
  Activity: 44.21%
SNB-19
  Activity: 86.41%

## C(=C\c1nc2ccccc2nc1SCc1nc2ccccc2[nH]1)/c1ccccc1
SF-295
  Activity: 58.32%
HCC 2998
  Activity: 86.35%
NCI-H460
  Activity: 70.22%
MDA-MB-435
  Activity: 88.93%
NCI-H226
  Activity: 65.68%
MDA-MB-231
  Activity: 77.23%
EKVX
  Activity: 22.23%
K562
  Activity: 61.44%
SN12C
  Activity: 74.42%
A498
  Activity: 71.11%
RXF 393
  Activity: 97.82%
OVCAR-5
  Activity: 95.41%
NCI/ADR-RES
  Activity: 53.22%
UACC-257
  Activity: 67.72%
TK-10
  Activity: 44.74%
HCT-15
  Activity: 96.13%
SR
  Activity: 83.8%
SK-MEL-28
  Activity: 94.52%
SF-539
  Activity: 97.75%
A549
  Activity: 64.03%
KM12
  Activity: 79.7%
786-0
  Activity: 76.68%
T47D
  Activity: 34.6%
SF-268
  Activity: 88.12%
DU-145
  Activity: 74.33%
HCT-116
  Activity: 35.79%
SK-MEL-5
  Activity: 17.4%
OVCAR-3
  Activity: 65.02%
SK-OV-3
  Activity: 73.61%
[1]
  Activity: 90.1%
CAKI-1
  Activity: 77.88%
CCRF-CEM
  Activity: 89.58%
MDA-MB-468
  Activity: 39.93%
OVCAR-8
  Activity: 82.17%
MCF7
  Activity: 40.3%
Malme-3M
  Activity: 63.63%
UO-31
  Activity: 58.6%
MOLT-4
  Activity: 63.07%
SNB-19
  Activity: 82.87%

## N#Cc1ccc(/C=C/c2ccc(NC(=O)c3ccccc3NC(=O)c3ccco3)cc2)cc1
SF-295
  Activity: 114%
HCC 2998
  Activity: 105%
NCI-H460
  Activity: 116%
MDA-MB-435
  Activity: 108%
NCI-H226
  Activity: 107%
MDA-MB-231
  Activity: 94.46%
EKVX
  Activity: 88.81%
K562
  Activity: 94.72%
SN12C
  Activity: 104%
A498
  Activity: 94.62%
RXF 393
  Activity: 114%
OVCAR-5
  Activity: 105%
NCI/ADR-RES
  Activity: 109%
UACC-257
  Activity: 103%
TK-10
  Activity: 126%
HCT-15
  Activity: 104%
SR
  Activity: 109%
SK-MEL-28
  Activity: 113%
SF-539
  Activity: 102%
A549
  Activity: 101%
KM12
  Activity: 107%
786-0
  Activity: 115%
T47D
  Activity: 103%
SF-268
  Activity: 104%
DU-145
  Activity: 104%
HCT-116
  Activity: 103%
SK-MEL-5
  Activity: 103%
OVCAR-3
  Activity: 107%
SK-OV-3
  Activity: 111%
[1]
  Activity: 100%
CAKI-1
  Activity: 83.31%
CCRF-CEM
  Activity: 96.43%
MDA-MB-468
  Activity: 108%
OVCAR-8
  Activity: 106%
MCF7
  Activity: 98.4%
PC-3
  Activity: 109%
Malme-3M
  Activity: 108%
UO-31
  Activity: 84.8%
MOLT-4
  Activity: 99.1%
SNB-19
  Activity: 111%
